Experimental findings from US20080085882A1, “Compositions and Methods for Potentiation of Cancer Agents” (priority 2006, published 2008) are described below.

In data set [1] the test system is cisplatin sensitive ovarian cancer cells (2008). Nature of the data set: MTS cell survival, cisplatin plus NSC109268. To be noted: cisplatin 0-100 μM, NSC109268 0-3 μM, 48 h. The class given is cell-based, human. As to the method:
Based on the cisplatin result in yeast, the inventors explored if a similar effect can be detected in human cells. […] Survival was determined in the presence or absence of compound NSC109268 using Cell Titer 96 Aqueous Cell Proliferation Assay kit from Promega, Madison, Wis. All cultures, unless specified otherwise, were maintained in growth medium composed of RPMI with 2 mM L-glutamine, 100 units/ml of Penicillin, and 100 μg/ml Streptomycin, supplemented with 10% fetal bovine serum under a humidified atmosphere of 95% air, 5% CO2 at 37° C.
Briefly, cells were plated in 96-well tissue culture plates at 5-8×10^3 cells/well and allowed to attach overnight in growth medium. The following day, cells were rinsed twice in DMEM and further incubated in serum-free medium for 24 h. Cells were then treated with cisplatin [0-100 μM] in the presence of NSC109268 [0, 1, 2, 3 μM] for 48 h. […]
To determine the number of surviving cells, cells were incubated in 333 μg/ml MTS [3-(4,5-dimethylthiazol-2-yl)-5-(3-carboxymethoxyphenyl)-2-(4-sulfophenyl)-2H-tetrazolium], a tetrazolium salt, and 25 μM phenazine methosulfate (PMS), an electron coupling reagent. […] The amount of formazan product measured in terms of absorbances is directly proportional to the number of live cells in the cultures. Thus, absorbance readings at 490 nm were taken after 1 h and converted to cell numbers based on standard curves. […]

Data set [2] has as its system double-strand break repair deficient derivative (rad51) yeast. Put plainly: sensitivity towards DNA damaging agents, survival of macrocolony forming cells, rad51. The class given is cell-based. To be noted: strain rad51. Further details: key: +: increased resistance; −: decreased resistance. As to the method:
(§1) As another example, the drug streptonigrin was used as a double-strand break inducing drug. After treatment of logarithmically growing yeast cultures for 1 h at 30° C. in YPD medium (1% yeast extract, 2% peptone, 2% dextrose), lethality was measured by inability of colony formation on YPD agar plates. […] The used concentration of 50-100 μg/ml results in 80% survival after 1 h incubation.
(§2) In summary, the incubation of logarithmic phase cells of wild-type yeast and a double-strand break repair deficient derivative (rad51) (Amberg, D. C., D. J. Burke, and J. N. Strathern. 2005. Methods in Yeast Genetics: A Cold Spring Harbor Laboratory Course Manual, 2005 Edition. Cold Spring Harbor Laboratory Press, Cold Spring Harbor, N.Y.) with compound NSC109268 had the following effects on sensitivity towards DNA damaging agents, measured as survival of macrocolony forming cells (+increased resistance, −decreased resistance, ND not determined): Table 1 summarizes the effects of NSC109268 on senstivity towards DNA Damaging Agents in repair-proficient wild type and rad 51^− cells.

The test system of data set [3] is checkpoint activation (DNA-damage-induced interaction between two selected checkpoint proteins). Put plainly: two-hybrid assay-based yeast screen for agents that modify cell cycle checkpoint activation. To be noted: in response to the topoisomerase I inhibitor camptothecin. As to the method:
A two-hybrid assay-based yeast system was used to screen small-molecule compound libraries for agents that modify cell cycle checkpoint activation. Checkpoint activation is measured as the DNA-damaged-induced increased interaction between two selected checkpoint proteins.

Data set [4] concerns yeast cultures. Nature of the data set: lethality of logarithmically growing yeast cultures, colony formation on YPD agar. It is filed as cell-based.
A further data set deals with WT strain BY4741. Nature of the data set: cisplatin/NSC combination treatments, fraction of colony forming cells. The note with it: 2 hours at 30° C. in water. The class given is cell-based, yeast. As for the experimental part: This enhancement of cisplatin sensitivity by NSC109268 was quantified. We also tested the chemically related compound NSC 109272. Cells of a logarithmic-phase culture of WT strain BY4741 were incubated for 2 hours at 30° C. in water containing the combinations of NSC109268 or NSC109272 and cisplatin shown in Table 2. The fraction of colony forming cells was determined on solid YPD medium.

A further data set deals with wild-type yeast. Nature of the data set: sensitivity towards DNA damaging agents, survival of macrocolony forming cells, wild type. It is filed as cell-based. Details: key: +: increased resistance; −: decreased resistance. The note with it: strain WT. As for the experimental part: as §1, §2
For data set [5], the system named is PC3 prostate adenocarcinoma cells. Nature of the data set: MTS cell survival, cisplatin plus NSC109268. It is filed as cell-based, human. As to the method: (§3) Based on the cisplatin result in yeast, the inventors explored if a similar effect can be detected in human cells. […] Survival was determined in the presence or absence of compound NSC109268 using Cell Titer 96 Aqueous Cell Proliferation Assay kit from Promega, Madison, Wis. All cultures, unless specified otherwise, were maintained in growth medium composed of RPMI with 2 mM L-glutamine, 100 units/ml of Penicillin, and 100 μg/ml Streptomycin, supplemented with 10% fetal bovine serum under a humidified atmosphere of 95% air, 5% CO2 at 37° C. Briefly, cells were plated in 96-well tissue culture plates at 5-8×10^3 cells/well and allowed to attach overnight in growth medium. The following day, cells were rinsed twice in DMEM and further incubated in serum-free medium for 24 h. Cells were then treated with cisplatin [0-100 μM] in the presence of NSC109268 [0, 1, 2, 3 μM] for 48 h. Dose-response studies were initially done to determine appropriate dosages for the drugs and their vehicles. Negative controls involved the use of DMF, vehicle for cisplatin (˜0 μM) or DMSO, vehicle for NSC109268 (˜0 μM). […] MTS is taken up by live cells where it is reduced by the dehydrogenase enzymes and released back into the culture medium as a yellow formazan product. The amount of formazan product measured in terms of absorbances is directly proportional to the number of live cells in the cultures. Thus, absorbance readings at 490 nm were taken after 1 h and converted to cell numbers based on standard curves. Standard curves were done using cells maintained in RPMI in 96-well plates at the same time. Experiments were done in triplicate wells at least 4 times. Statistical analyses were done using ANOVA. […] Several series of studies were conducted using DMF (solvent control=0) and various concentrations of cisplatin in combination with (DMSO (solvent control=0), 1 μM NSC1092682 μM NSC109268, and 3 μM NSC109268. Survival was plotted in a logarithmic scale against cisplatin dose, with different symbols indicating the amount of added NSC109268 (see FIG. 1A insert), for the RWPE-1 normal prostate cell line (FIG. 1A), PC3 prostate cancer cells (FIG. 1B), cisplatin-sensitive ovarian cancer cells (2008) (FIG. 1C) and cisplatin-resistant ovarian cancer cells (2008/IC3) (FIG. 1D).

Data set [6] has as its system cisplatin resistant ovarian cancer cells (2008/IC3). Put plainly: MTS cell survival, cisplatin plus NSC109268. The class given is cell-based, human. As for the experimental part:
as §3

For data set [7], the system named is yeast cultures. Put plainly: lethality of logarithmically growing yeast cultures, colony formation on YPD agar. The class given is cell-based. As for the experimental part:
as §1
Curiously, the opposite effect was found for other agents such hydrogen peroxide (H2O2), an oxidative agent causing base damage and strand breaks.
The source holds these as a separate data set.

Setting [8] is: cisplatin 0-100 μM, NSC109268 0-3 μM, 48 h.
Setting [9] is: compared to cisplatin-sensitive cells (2008).

“Also recorded” adds a separate entry of the source. Some results are limits rather than exact numbers.

In the case of “Copper, di-μ-chlorobis[1-[(1-piperidinyl-κN)methyl]-2-naphthalenolato-κO]di-(9CI) [NSC109268]”, the “effect of combination with cisplatin on survival” value is given as “synergistically enhanced” in [1], “synergistically enhanced; also recorded: increases cellular sensitivity to cisplatin” in data set [5] (setting [8]) and “synergistically enhanced” in data set [6] (setting [8]). Further, the “effect on sensitivity towards DNA damaging agent” value in data set [2] (Cisplatin) was “−”; in [2] (Ionizing radiation (137Cs)), “+”; in [2] (Phleomycin), “+”; in the data set with wild-type yeast (Cisplatin), “−”; in the data set on wild-type yeast (MNNG), “+”; in the data set with wild-type yeast (Streptonigrin) it was “+”. In addition, the “effect on checkpoint activation” value in data set [3] is recorded as “interfere with checkpoint activation”. Also, the “effect on sensitivity to DNA damaging agent” value is “does not seem to affect sensitivity” in the data set on yeast cultures [4] (alkylating agent (MMS)); “does not seem to affect sensitivity” in the data set on yeast cultures [4] (phleomycin); “does not seem to affect sensitivity” in the data set with yeast cultures [4] (ultraviolet radiation (UV-C)); “sensitivity is enhanced” with yeast cultures [7] (hydrogen peroxide (H2O2), simultaneous exposure). The “effect on lethality of DNA damaging agent” value in the data set with yeast cultures [4] (ionizing radiation (137Cs γ-radiation)) is “less significantly”; in the data set with yeast cultures [7] (streptonigrin, 1 h at 30° C. in YPD medium), “protective effect”. The “cell survival (fraction of colony forming cells)” value with WT strain BY4741 (NSC109268 7.4 nM + 33 μM Cisplatin) is 29%; in the data set with WT strain BY4741 (NSC109268 7.4 nM + 82.5 μM Cisplatin), 25.5%; with WT strain BY4741 (NSC109268 7.4 nM + 165 μM Cisplatin), 0.09%; with WT strain BY4741 (NSC109268 7.4 nM, 0 μM Cisplatin) it was 79.5%; in the data set on WT strain BY4741 (NSC109268 37 nM + 165 μM Cisplatin), below 0.4%; with WT strain BY4741 (NSC109268 37 nM, 0 μM Cisplatin) it was 10%. For the same molecule, in data set [5] (range of concentrations that increases sensitivity to cisplatin), the “toxicity of NSC109268 alone” value is reported as “(virtually) non-toxic”. Moreover, the survival in data set [6] (2 μM NSC109268 without any cisplatin, 48 h) is listed as 38%; in the data set with yeast cultures [7] (compound itself, 50-100 μg/ml, 1 h incubation), 80%. In addition, the measured survival in data set [6] (5 μM cisplatin/2 μM combination treatment, 48 h) worked out at 4.5%. Further, the “survival expected if the effects were independent” value in data set [6] (5 μM cisplatin/2 μM combination treatment, 85% of 38%) is reported as 32%. For the same molecule, the “enhancement effect on cisplatin” value in data set [6] (setting [9]) is listed as “much more pronounced”. In addition, the “toxicity without added cisplatin” value in data set [6] (setting [9]) is listed as “much more toxic”. Further, the “toxicity of the compound itself” value with yeast cultures [7] (yeast, 1 h at 30° C. in YPD medium) is recorded as “moderate toxicity”.

Regarding “Copper, di-μ-chlorobis[1-[(4-morpholinyl-κN4)methyl]-2-naphthalenolato-κO]di-(9CI) [NSC109272]”, the “cell survival (fraction of colony forming cells)” value with WT strain BY4741 (NSC109272 1.5 nM + 165 μM Cisplatin) worked out at 4%; in the data set on WT strain BY4741 (NSC109272 1.5 nM, 0 μM Cisplatin), 70%.

`N.N.[Cl][Pt][Cl]` [Cisplatin, cis-Diammineplatinum (II) dichloride, reference compound]: the entries for the “cell survival (fraction of colony forming cells)” value in the data set with WT strain BY4741 (33 μM Cisplatin alone), in the data set with WT strain BY4741 (82.5 μM Cisplatin alone) and in the data set on WT strain BY4741 (165 μM Cisplatin alone) were 71%, 44.5% and 21%, respectively. Further, the survival in data set [6] (5 μM of cisplatin without any added NSC109268, 48 h) is recorded as 85%.
